Where “and” joins values, the source holds several entries; their conditions need not be identical. Equal values may be shown once. Read-outs that look alike come from different tables or passages of the source.
What was measured:
[1] = Formulation stability of [Sc-^18F(picaga-DUPA)]^- by radioHPLC; assay type: physicochemical
Description: The stability of [Sc-^18F(picaga-DUPA)]^− in both DPBS and saline was evaluated for up to 4 h. It was determined that [Sc-^18F(picaga-DUPA)]^− was stable in both DPBS and saline for at least 4 h (FIG. 7A, B).
The [^18F]KF stock solution was prepared as previously described (39.4 mCi, 693 μL, pH 2.5). The Sc-^18F precursor was formed via direct addition of 200 μL 0.25 M ammonium acetate (pH 4.1) buffer and 20 nmol ScCl3 stock (0.25 eq.) to the [^18F]KF stock. Following incubation at room temperature for 10 minutes, 79.8 nmol picaga-DUPA (1 eq.) was added to 400 μL of the Sc-^18F precursor stock solution (13.11 mCi), then incubated at 100° C. for 25 minutes. The major [^18F]Sc—F(picaga)-DUPA species was separated the minor isomer and Sc-^18F via analytical radioHPLC (Method C). (FIG. 34) Purified [^18F]Sc—F(picaga)-DUPA complex was concentrated to dryness under reduced pressure and formulated for injection in DPBS (2.11 mCi, 550 μL). Dose formulation stability was analyzed at 0 and 4 hours (FIG. 34A), before and after in vivo experiments, via radioHPLC (Method C). Apparent molar activity: 164 mCi/μmol.

[2] = cited from earlier work
[3] = Spectrophotometric pH-dependent titration (complex formation pKa, speciation); assay type: physicochemical
Excerpt: As was previously shown, radiolabeling of Lu-177 with L1 is not feasible at room temperature, in part due to the comparatively high formation pKa of the [Lu(L1)] coordination complex (pH 2.4) (Vaughn, B. A. et al. 2021).

PSMA [4] = target: T1, PSMA (Homo sapiens, UniProt Q04609); experiment: Displacement assay against ^99mTc(CO)3-MIP-1427 for binding affinity to PSMA; details: displacement of ^99mTc-MIP-1427, DCFPyL as internal reference; read-out: affinity (Ki) to the PSMA target
Description: Stock solutions of Lu-(picaga)-HSA in (DMSO: H2O, 1:5) were prepared and concentrations were determined by ICP-OES in accordance with previously published method.
The Ki was determined by nonlinear regression analysis using GraphPad Prism software.
Prior to the assessment of the ^177Lu-labeled compounds, binding affinity to the biological target PSMA was evaluated.

human serum albumin [5] = target: T2, human serum albumin (Homo sapiens, UniProt P02768); experiment: Binding to human serum albumin (ultrafiltration, Lu in filtrate by ICP-OES)
Description: (§1) To measure HSA binding of the complexes, a 0.1 mM solution (determined by ICP-OES) of the corresponding ^natLu complex in 4.5% w/v HSA was prepared and pipetted into an Amicon Ultra-0.5 Centrifugal Filter Unit (50 KDa cutoff, Millipore, UFC500396). The mixture was incubated at 37° C. for 15 min and subsequently centrifuged at 12000 rpm for 10 min. Binding is determined by measurement of Lu content in the filtrate by ICP-OES and compared to non-specific binding to the filter in absence of HSA.
(§2) To this end, each ligand was incubated at 37° C. for 15 minutes in PBS with or without 4.5% human serum albumin to simulate in vivo protein concentration. Each mixture was filtered through a 50 KDa MW cutoff filter and the ^natLu content of the filtrate was measured by ICP-OES. ^natLu-mpaten was used as a chelator-only control with no targeting functionality and thus no expected interaction with human serum albumin.

[6] = Dose formulation stability of ^177Lu-radiolabeled ligands by radio-HPLC; assay type: physicochemical; details: DMSO:NH4OAc:phosphate buffered saline, room temperature
Description: The stability for ^177Lu-radiolabeled ligands was evaluated by radio-HPLC for radiolytic degradation and decomplexation at relevant time points concentrations for dose preparation, storage, and administration. (picaga)-HSA was radiolabeled as previously described at a specific activity of 0.08 mCi/nmol (3.0 MBq/nmol) and diluted in PBS. A 0.1 mL aliquot was removed, stored at room temperature, and tested for stability by radio-HPLC. The activity concentration at t=0 was 0.12 mCi in 0.1 mL.
Under the same conditions, ^177Lu-PSMA-617 was determined to be 80% intact.

PSMA+PC3 PIP cells = experiment: Cell uptake and internalization; assay type: cell-based
Description: The binding and internalization of ^177Lu-(picaga)-HSA and ^177Lu-PSMA-617 was evaluated in PSMA+PC3 PIP cells. In brief, 5×10^5 PC3 PiP cells are suspended, washed and aliquoted. The internalized fraction is determined using ^177Lu-ligand in PC3 PiP cells, with ligands radiolabeled at a specific activity of 0.08 mCi/nmol (3.0 MBq/nmol) and diluted in PBS. […] Subsequently, cell samples were lysed by addition of NaOH (1 M, 1 mL) to release cellular contents and internalized ^177Lu-(picaga)-HSA. Radioactive counts are quantitated separately using a gamma well counter, with each incubation conducted in triplicate.

[7] = Whole body activity clearance (dose calibrator); parameters: species or system mice; details: mouse, in vivo
Description: Whole body activity was measured by placing each mouse into a dose-calibrator. % Remaining activity was given by =[At/At=0] where At is the decay-corrected whole body activity at time t and At-0 is the total activity measured by dose calibrator p.i. The data were fit to a one-phase decay curve in GraphPad Prism and the biological decay constant K was calculated to be K=0.005638 h^−1 for ^177Lu-(picaga)-HSA and K=0.1415 h^−1 for ^177Lu-PSMA-617.
To approximate clearance of the ^177Lu-constructs, therapy cohort treated with ^177Lu-(picaga)-HSA and ^177Lu-PSMA-617 were monitored for residual whole-body activity remaining in the mouse. The whole-body activity remaining was plotted and the biological half-life in PSMA+tumor-bearing mice was determined using nonlinear regression in Graph Pad Prism (FIG. 16; Table 5). […] This is attributable to both the longer blood half-life because of the HSA-binding functionality and to the enhanced tumor uptake afforded by the longer blood circulation.

PSMA+PC-3 PIP tumors [8] = experiment: Single dose radiotherapy study in PC-3 PIP tumor-bearing mice; details: single dose 3.7 MBq
Description: Twelve-week-old male mice were inoculated subcutaneously on the right shoulder with PSMA+PC-3 PIP cells (0.7×10^6/mouse in 1:2 DPBS pH 7.4: Matrigel). Tumors grew nine days before treatment with an approximate volume of 100 mm^3 at day 0. Three groups of mice (n=6) (cohort A, B, and C) with statistically similar body weights and tumor volumes were injected at day 0 of the therapy study. Group A received saline only. […] Following administration of radioligand or vehicle, the mice were monitored by measuring the tumor size and body weight over 60 days. Mice were euthanized when the predefined end point criteria were reached, or when the study was terminated at day 60. The relative body weight (RBW) was defined as [BWx/BW0], where BWx is the body weight in grams at a given day x and BW0 is the body weight in grams on day 0. The tumor dimension was determined by measuring the longest tumor axis (L) and its perpendicular axis (W) with a digital caliper. The tumor volume (V) was calculated according to the equation [V=0.5×(LW^2)].

PSMA+PC-3 PIP tumors [9] = experiment: Pilot therapy study with ^177Lu-picaga-DUPA; details: 3.3 MBq, n = 4, 14 days
Description: Twelve-week-old male mice were inoculated subcutaneously on the right shoulder with PSMA+PC-3 PIP cells (0.7×10^5/mouse in 1:1 DPBS pH 7.4: Matrigel). Tumors grew nine days before treatment with an approximate volume of 100 mm^3 at day 0. One group of mice (n=4) (cohort D) with statistically similar body weights and tumor volumes were injected at day 0 of the therapy study. Group D received 3.3 MBq of the radioligand via tail vein injection (^177Lu-picaga-DUPA). Following administration of radioligand, the mice were monitored by measuring the tumor size and body weight over 14 days. Mice were euthanized when the predefined end point criteria were reached, or when the study was terminated at day 14. The relative body weight (RBW) was defined as [BWx/BW0], where BWx is the body weight in grams at a given day x and BW0 is the body weight in grams on day 0. The tumor dimension was determined by measuring the longest tumor axis (L) and its perpendicular axis (W) with a digital caliper. The tumor volume (V) was calculated according to the equation [V=0.5×(LW^2)]. The relative tumor volume (RTV) was defined as [TVx/TV0], where TVz is the tumor volume in mm^3 at a given day x, and TV0 is the tumor volume in mm^3 at day 0.

PSMA + and PSMA − tumors = details: previous work, 2 h post-injection, n = 4, cited from earlier work
human serum albumin [10] = target: T2, human serum albumin; details: 15 min, 0.1 mM
Description: as §1, §2

PSMA [11] = target: T1, PSMA; details: value taken from literature; cited from earlier work

T2 sequence (P02768 25-609): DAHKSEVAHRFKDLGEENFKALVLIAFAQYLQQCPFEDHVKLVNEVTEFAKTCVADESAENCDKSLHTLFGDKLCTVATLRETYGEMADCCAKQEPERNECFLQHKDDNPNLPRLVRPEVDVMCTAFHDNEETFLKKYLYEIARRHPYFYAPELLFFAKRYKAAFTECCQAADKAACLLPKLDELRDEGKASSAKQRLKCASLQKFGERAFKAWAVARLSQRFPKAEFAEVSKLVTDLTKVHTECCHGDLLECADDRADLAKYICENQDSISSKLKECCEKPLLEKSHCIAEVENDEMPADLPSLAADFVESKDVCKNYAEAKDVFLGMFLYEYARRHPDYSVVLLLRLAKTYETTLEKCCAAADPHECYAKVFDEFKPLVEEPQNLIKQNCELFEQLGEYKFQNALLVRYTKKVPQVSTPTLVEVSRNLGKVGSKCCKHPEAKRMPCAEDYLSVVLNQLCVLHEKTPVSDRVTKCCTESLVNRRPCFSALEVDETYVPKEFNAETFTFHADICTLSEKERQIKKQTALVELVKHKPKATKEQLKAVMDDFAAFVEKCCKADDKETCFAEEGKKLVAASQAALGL
T1 sequence (Q04609 whole entry): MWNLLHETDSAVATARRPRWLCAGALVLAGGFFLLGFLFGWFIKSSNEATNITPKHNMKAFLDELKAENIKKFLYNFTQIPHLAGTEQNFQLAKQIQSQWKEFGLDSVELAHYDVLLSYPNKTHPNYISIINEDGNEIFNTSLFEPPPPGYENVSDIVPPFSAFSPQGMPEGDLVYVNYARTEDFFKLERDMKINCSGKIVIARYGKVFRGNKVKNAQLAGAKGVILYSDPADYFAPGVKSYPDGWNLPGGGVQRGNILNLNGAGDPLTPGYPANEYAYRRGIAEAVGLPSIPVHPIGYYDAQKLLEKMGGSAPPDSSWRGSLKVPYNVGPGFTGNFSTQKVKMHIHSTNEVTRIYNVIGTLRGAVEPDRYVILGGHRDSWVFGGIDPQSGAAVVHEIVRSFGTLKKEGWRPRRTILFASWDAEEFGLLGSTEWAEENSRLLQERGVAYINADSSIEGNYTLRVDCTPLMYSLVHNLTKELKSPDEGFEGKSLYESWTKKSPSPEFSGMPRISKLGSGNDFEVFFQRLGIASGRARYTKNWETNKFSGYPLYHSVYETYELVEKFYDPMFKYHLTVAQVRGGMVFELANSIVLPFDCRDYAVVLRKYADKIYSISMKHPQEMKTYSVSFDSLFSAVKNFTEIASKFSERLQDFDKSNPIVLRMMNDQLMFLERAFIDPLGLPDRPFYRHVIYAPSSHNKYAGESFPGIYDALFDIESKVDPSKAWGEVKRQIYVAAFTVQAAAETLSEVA

In the case of O=C([O-])CN1CCN(Cc2cccc(C(=O)[O-])n2)CCN(C(CCC(=O)NCCCCCNC(=O)CCC(NC(=O)NC(CCC(=O)O)C(=O)O)C(=O)O)C(=O)[O-])CC1.[18F-].[Sc+3] (stereo not drawn) [Sc-^18F(picaga)-DUPA], the “stability in DPBS” value ([1]; DPBS, evaluated for up to 4 h) is reported as “at least 4 h”, the “radioHPLC after purification and storage in PBS for 4 hours” value [1] is reported as “no detectable decomposition even after 4 hours” and the “radioHPLC after purification and storage in PBS for 4 hours” value ([1]; listed as [^18F]Sc—F(picaga)-DUPA) is reported as “No degradation or defluorination is observed”. For the same compound, the stability in saline ([1]; saline, evaluated for up to 4 h) was “at least 4 h”.
In the case of O=C([O-])CN1CCN(CC(=O)[O-])CCN(Cc2cccc(C(=O)[O-])n2)CC1.[OH-].[Sc+3] [[Sc(mpatcn)(OH)]^−], the “pKa of hydroxide complex” value ([2]; deprotonation of Sc-bound inner sphere water, literature) is given as 9.1.
With O=C([O-])CN1CCN(CC(=O)[O-])CCN(Cc2cccc(P(=O)([O-])[O-])n2)CC1.[Lu+3] [[Lu(L2)]] the “complex formation pKa (pH of first complex species)” value [3] was 0.9.
In the case of O=C([O-])CN1CCNCCN(CC(=O)[O-])CC1.[Al+3].[OH-] [[(Al(NO2A)(OH)], reference compound], the “pH at which hydroxide complex can form” value ([2]; literature) is listed as under 5.
For O=C([O-])CN1CCN(Cc2cccc(C(=O)[O-])n2)CCN(C(CCC(=O)NC(CCCCNC(=O)CCCc2ccc(I)cc2)C(=O)NCC2CCC(C(=O)NC(Cc3ccc4ccccc4c3)C(=O)NCCCCC(NC(=O)NC(CCC(=O)O)C(=O)O)C(=O)O)CC2)C(=O)[O-])CC1.[Lu+3] (stereo not drawn) [^natLu-(picaga)-HSA], the Ki (PSMA [4]) was 1.4 ± 0.6 nM and the “binding to HSA compared to PBS” value (human serum albumin [5]; 0.1 mM ^natLu complex, 4.5% HSA in PBS, 37° C., 15 min, 50 KDa filter) was 80±3.3%.
In the case of O=C([O-])CN1CCN(CC(=O)[O-])CCN(CC(=O)NCC2CCC(C(=O)N[C@@H](Cc3ccc4ccccc4c3)C(=O)NCCCC[C@H](NC(=O)N[C@@H](CCC(=O)O)C(=O)O)C(=O)O)CC2)CCN(CC(=O)[O-])CC1.[177Lu+3] (stereo partly drawn) [^177Lu-PSMA-617, reference compound], the “complex stability in dose formulation, 4 h” value ([6]; 4 h) is reported as over 99%, the “complex stability in dose formulation, 24 h” value ([6]; 24 h) is reported as over 99% and the “complex stability in dose formulation, 48 h” value ([6]; 48 h) is reported as over 99%. The “complex stability in dose formulation, 14 d (% intact)” value ([6]; 14 d) was 80%, the “% Internalization 2 h” value (PSMA+PC3 PIP cells; 2 h) was 33.53±1.40% and 33.53% and the “% Uptake 2 h” value (PSMA+PC3 PIP cells; 2 h) was 6.36±0.43% and 6.36%. For the same compound, the “% Internalization 4 h” value (PSMA+PC3 PIP cells; 4 h) was 36.11±2.93% and 36.11%, the “% Uptake 4 h” value (PSMA+PC3 PIP cells; 4 h) was 6.15±0.21% and 6.15% and the “% Internalization 24 h” value (PSMA+PC3 PIP cells; 24 h) was 50.93±2.14% and 50.93%. For the same compound, the “% Uptake 24 h” value (PSMA+PC3 PIP cells; 24 h) was 9.60±0.11% and 9.60%, the “% Uptake Blocking” value (PSMA+PC3 PIP cells; blocking with unlabeled glu-urea-glu PSMA targeting molecule) was 0.45±0.03% and 0.45% and the “biological decay constant K” value [7] was 0.1415 h^−1. For the same compound, the “biological half-life t1/2” value [7] was 4.9 h, the “% activity remaining in whole body p.i., 0 h” value ([7]; 0 h) was 100.00 ± 0.00% and the “% activity remaining in whole body p.i., 24 h” value ([7]; 24 h) was 3.35 ± 0.16%. The “relative body weight during therapy study” value (PSMA+PC-3 PIP tumors [8]) was “dropped during the study”, the “tumor growth / survival compared to control cohort” value (PSMA+PC-3 PIP tumors [8]; PC-3 PIP tumor-bearing mice) was “marginally enhanced survival and delayed tumor growth” and the median survival (PSMA+PC-3 PIP tumors [8]; PC-3 PIP tumor-bearing mice, study to day 60) was 21 days.
For O=C([O-])CN1CCN(Cc2cccc(C(=O)[O-])n2)CCN(C(CCC(=O)NCCCCCNC(=O)CCC(NC(=O)NC(CCC(=O)O)C(=O)O)C(=O)O)C(=O)[O-])CC1.[177Lu+3] (stereo not drawn) [^177Lu-picaga-DUPA], the “delay in tumor growth (pilot data)” value (PSMA+PC-3 PIP tumors [9]) was “delay in tumor growth for ^177Lu-PSMA-617 was similar to the delay observed in our pilot data”.
For O=C([O-])CN1CCN(Cc2cccc(C(=O)[O-])n2)CCN(C(CCC(=O)NCCCCCNC(=O)CCC(NC(=O)NC(CCC(=O)O)C(=O)O)C(=O)O)C(=O)[O-])CC1.[47Sc+3] (stereo not drawn) [^47Sc(picaga)-DUPA], the “Blood 2 h” value (PSMA + and PSMA − tumors; Blood) is listed as 0.19 ± 0.14 % ID/g, the “Bone 2 h” value (PSMA + and PSMA − tumors; Bone) is listed as 0.12 ± 0.06 % ID/g and the “Heart 2 h” value (PSMA + and PSMA − tumors; Heart) is listed as 0.11 ± 0.03 % ID/g. For the same compound, the “Kidney 2 h” value (PSMA + and PSMA − tumors; Kidney) was 7.13 ± 3.73 % ID/g, the “Liver 2 h” value (PSMA + and PSMA − tumors; Liver) was 1.22 ± 1.88 % ID/g and the “Muscle 2 h” value (PSMA + and PSMA − tumors; Muscle) was 0.08 ± 0.03 % ID/g. For the same compound, the “PSMA + Tumor 2 h” value (PSMA + and PSMA − tumors; PSMA + Tumor) was 12.74 ± 2.87 % ID/g, the “PSMA − Tumor 2 h” value (PSMA + and PSMA − tumors; PSMA − Tumor) was 0.77 ± 1.11 % ID/g and the “Sm. Int. 2 h” value (PSMA + and PSMA − tumors; Sm. Int.) was 0.18 ± 0.07 % ID/g. The “Spleen 2 h” value (PSMA + and PSMA − tumors; Spleen) was 0.24 ± 0.10 % ID/g.
For O=C(O)CC[C@H](NC(=O)N[C@@H](CCCCNC(=O)[C@H](Cc1ccc2ccccc2c1)NC(=O)[C@H]1CC[C@H](CNC(=O)CN2CCN(CC(=O)O)CCN(CC(=O)O)CCN(CC(=O)O)CC2)CC1)C(=O)O)C(=O)O [PSMA-617], the “binding to HSA compared to PBS” value (human serum albumin [10]) is listed as 55±1.2% and the Ki (PSMA [11]) is listed as 6.9 ± 1.3 nM.
In the case of O=C([O-])CN1CCN(CC(=O)[O-])CCN(Cc2cccc(C(=O)[O-])n2)CC1.[Lu+3] [[Lu(L1)]], the “complex formation pKa (pH of first complex species)” value ([2]; previously shown (Vaughn, B. A. et al. 2021)) is listed as 2.4.
In the case of O=C([O-])CN1CCN(CC(=O)[O-])CCN(Cc2cccc(C(=O)[O-])n2)CC1.[Lu+3] [Lu-mpaten], the “difference in compound in the filtrate with or without HSA” value (human serum albumin [5]; 4.5% HSA in PBS vs PBS, chelator-only control) is reported as “no significant difference”.
